≈ marks a conversion by molar mass, not a printed value. Like-named read-outs stand apart in the source and are kept apart here. One block for each compound: values may come before it.
Key:
Lactobacillus gasseri = assay: Agar dilution MIC assay (anaerobes); format: cell-based; settings: Micromyx Number 4148, 35° C., 48 hours, anaerobic
Bacteroides ureolyticus = assay: Agar dilution MIC assay (anaerobes); format: cell-based; settings: Micromyx Number 4150, 35° C., 48 hours, anaerobic
Prevotella intermedia = assay: Agar dilution MIC assay (anaerobes); format: cell-based; settings: Micromyx Number 3002, 35° C., 48 hours, anaerobic
Lactobacillus crispatus = assay: Agar dilution MIC assay (anaerobes); format: cell-based; settings: Micromyx Number 4147, 35° C., 48 hours, anaerobic
Mobiluncus. curtisii = assay: Agar dilution MIC assay (anaerobes); format: cell-based; settings: Micromyx Number 4145, 35° C., 48 hours, anaerobic
Prevotella bivia = assay: Agar dilution MIC assay (anaerobes); format: cell-based; settings: Micromyx Number 3447, 35° C., 48 hours, anaerobic
Lactobacillus casei = assay: Agar dilution MIC assay (anaerobes); format: cell-based; settings: Micromyx Number 1722, 35° C., 48 hours, anaerobic
[1] = tested on: Bacteroides fragilis 0123 (ATCC 25285); assay: Agar dilution MIC assay (anaerobes), quality control organism; format: cell-based; settings: 48 hours, anaerobic
[2] = tested on: Porphyromonas asaccharolytica; assay: Agar dilution MIC assay (anaerobes); format: cell-based; settings: Micromyx Number 3004, 35° C., 48 hours, anaerobic
[3] = tested on: Bacteroides fragilis 3374; assay: Agar dilution MIC assay (anaerobes); format: cell-based; settings: Micromyx Number 3374, 35° C., 48 hours, anaerobic
Gardnerella vaginalis = assay: Agar dilution MIC assay (anaerobes); format: cell-based; settings: Micromyx Number 4153, 35° C., 48 hours, anaerobic
Porphyromonas levii = assay: Agar dilution MIC assay (anaerobes); format: cell-based; settings: Micromyx Number 3003, 35° C., 48 hours, anaerobic
[4] = tested on: Prevotella melaninogenica; assay: Agar dilution MIC assay (anaerobes); format: cell-based; settings: Micromyx Number 3005, 35° C., 48 hours, anaerobic
[5] = tested on: Lactobacillus acidophilus; assay: Agar dilution MIC assay (anaerobes); format: cell-based; settings: Micromyx Number 0681, 35° C., 48 hours, anaerobic
Bacteroides ovatus 3503 = assay: Agar dilution MIC assay (anaerobes); format: cell-based; settings: Micromyx Number 3503, 35° C., 48 hours, anaerobic
Lactobacillus jensenii = assay: Agar dilution MIC assay (anaerobes); format: cell-based; settings: Micromyx Number 4149, 35° C., 48 hours, anaerobic
Mobiluncus mulieris = assay: Agar dilution MIC assay (anaerobes); format: cell-based; settings: Micromyx Number 4146, 35° C., 48 hours, anaerobic
Anaerococcus prevotii = assay: Agar dilution MIC assay (anaerobes); format: cell-based; settings: Micromyx Number 4151, 35° C., 48 hours, anaerobic
Fusobacterium nucleatum = assay: Agar dilution MIC assay (anaerobes); format: cell-based; settings: Micromyx Number 1269, 35° C., 48 hours, anaerobic
B. ovatus 3508 = assay: Agar dilution MIC assay (anaerobes); format: cell-based, Bacteroides ovatus; settings: Micromyx Number 3508, 35° C., 48 hours, anaerobic
Anaerococcus tetradius = assay: Agar dilution MIC assay (anaerobes); format: cell-based; settings: Micromyx Number 4152, 35° C., 48 hours, anaerobic
Lactobacillus plantarum = assay: Agar dilution MIC assay (anaerobes); format: cell-based; settings: Micromyx Number 2791, 35° C., 48 hours, anaerobic
[6] = tested on: Peptostreptococcus anaerobius; assay: Agar dilution MIC assay (anaerobes); format: cell-based; settings: Micromyx Number 3526, 35° C., 48 hours, anaerobic
[7] = Bacteroides ovatus, read-out: MIC

MIC (Lactobacillus gasseri): >30000 µg/mL
MIC (Bacteroides ureolyticus): >30000 µg/mL
MIC (Prevotella intermedia): >30000 µg/mL
MIC (Lactobacillus crispatus): 10000 µg/mL (≈ 27700 µM)
MIC (Mobiluncus. curtisii): >30000 µg/mL
MIC (Prevotella bivia): 30000 µg/mL (≈ 83200 µM)
MIC (Lactobacillus casei): >30000 µg/mL
MIC ([1]; Micromyx Number 0123, 35° C.): >30000 µg/mL
MIC [2]: >30000 µg/mL
MIC [3]: >30000 µg/mL
MIC (Gardnerella vaginalis): 5000 µg/mL (≈ 13900 µM)
MIC (Porphyromonas levii): >30000 µg/mL
MIC [4]: >30000 µg/mL
MIC [5]: >30000 µg/mL
MIC (Bacteroides ovatus 3503): >30000 µg/mL
MIC (Lactobacillus jensenii): >30000 µg/mL
MIC (Mobiluncus mulieris): >30000 µg/mL
MIC (Anaerococcus prevotii): >30000 µg/mL
MIC (Fusobacterium nucleatum): >30000 µg/mL
MIC (B. ovatus 3508): 30000 µg/mL (≈ 83200 µM)
MIC (Anaerococcus tetradius): >30000 µg/mL
MIC [6]: >30000 µg/mL
SMILES: CC(=O)COc1cc(S(=O)(=O)O)cc2cc(S(=O)(=O)O)ccc12 [SPL7013]
MIC (Lactobacillus plantarum): >30000 µg/mL

MIC (Lactobacillus gasseri; Lactobacillus gasseri, read-out: MIC): 0.25 µg/mL (≈ 0.835 µM)
MIC (Bacteroides ureolyticus; Campylobacter ureolyticus, read-out: MIC): 0.25 µg/mL (≈ 0.835 µM)
MIC (Prevotella intermedia; Prevotella intermedia, read-out: MIC): ≤ 0.03 µg/mL
MIC (Lactobacillus crispatus; Lactobacillus crispatus, read-out: MIC): 0.12 µg/mL (≈ 0.401 µM)
MIC (Mobiluncus. curtisii; Mobiluncus curtisii, read-out: MIC): ≤ 0.03 µg/mL
MIC (Prevotella bivia; Prevotella bivia, read-out: MIC): ≤ 0.03 µg/mL
MIC (Lactobacillus casei; Lacticaseibacillus casei, read-out: MIC): 0.5 µg/mL (≈ 1.67 µM)
MIC ([1]; Bacteroides fragilis, ATCC25285, Micromyx Number 0123, 35° C., read-out: MIC): 0.12 µg/mL (≈ 0.401 µM)
MIC ([2]; Porphyromonas asaccharolytica, read-out: MIC): ≤ 0.03 µg/mL
MIC ([3]; Bacteroides fragilis, read-out: MIC): 2 µg/mL (≈ 6.68 µM)
MIC (Gardnerella vaginalis; Gardnerella vaginalis, read-out: MIC): 0.12 µg/mL (≈ 0.401 µM)
MIC (Porphyromonas levii; Porphyromonas levii, read-out: MIC): 0.06 µg/mL (≈ 0.2 µM)
MIC ([4]; Prevotella melaninogenica, read-out: MIC): ≤ 0.03 µg/mL
MIC ([5]; Lactobacillus acidophilus, read-out: MIC): 0.12 µg/mL (≈ 0.401 µM)
MIC (Bacteroides ovatus 3503; [7]): 0.25 µg/mL (≈ 0.835 µM)
MIC (Lactobacillus jensenii; Lactobacillus jensenii, read-out: MIC): 0.25 µg/mL (≈ 0.835 µM)
MIC (Mobiluncus mulieris; Mobiluncus mulieris, read-out: MIC): ≤ 0.03 µg/mL
MIC (Anaerococcus prevotii; Anaerococcus prevotii, read-out: MIC): 0.06 µg/mL (≈ 0.2 µM)
MIC (Fusobacterium nucleatum; Fusobacterium nucleatum, read-out: MIC): ≤ 0.03 µg/mL
MIC (B. ovatus 3508; [7]): ≤ 0.03 µg/mL
MIC (Anaerococcus tetradius; Anaerococcus tetradius, read-out: MIC): ≤ 0.03 µg/mL
MIC ([6]; Peptostreptococcus anaerobius, read-out: MIC): ≤ 0.03 µg/mL
SMILES: C[C@@H](O)[C@H]1C(=O)N2C(C(=O)O)=C(SCCN=CN)C[C@H]12 [Imipenem, reference compound]
MIC (Lactobacillus plantarum; Lactiplantibacillus plantarum, read-out: MIC): 2 µg/mL (≈ 6.68 µM)

Source: patent publication US9155760B2, “Method of prophylaxis of bacterial vaginosis” (STARPHARMA PTY LIMITED, priority 2011, dated 2015)
